Read-outs that look alike come from different tables or passages of the source.
Assays:
recombinant human FAP = recombinant human FAP (Homo sapiens (Human), UniProt Q12884); experiment: In vitro enzyme IC50 assay, FAP; assay type: biochemical; conditions: for IC50: read-out: FAP Inhibition (IC50)
Source text: (§1) The peptide libraries XPYSWS-NH2, Ac-XPYSWS-NH2, GXYSWS-NH2, and Ac-GXYSWS-NH2, where X represents all natural amino acids except cysteine were synthesized by the Tufts University Core Facility. The DPPIV enzyme used for the specificity studies was previously purified by our laboratory at Tufts University from human placenta, and the purified human FAP enzyme used for these studies was kindly provided by Syrxx, Inc. For the in vitro IC50 determination assays, recombinant human DPPIV, DPP9, FAP, and PREP were purchased from R&D Systems, and DPP8 was from Biomol International. Buffer systems used were A (25 mM Tris, pH 8.0), B (50 mM Tris, pH 7.5), C (50 mM Tris, 140 mM NaCl, pH 7.5), D (25 mM Tris, 250 mM NaCl, pH 7.5), and E (20 mM Tris, 20 mM KCl, pH 7.4).
(§2) In Vitro Enzyme IC50 Assays
(§3) Enzymatic activity of DPPIV, DPP8, DPP9, FAP, and PREP was measured at 25° C. on a Molecular Devices M2^e multidetection microtiter plate reader, monitoring the fluorescence at an excitation wavelength of 380 nm and an emission wavelength of 460 nm. The substrate was either H-Gly-Pro-AMC for the DPPIV, DPP8, and DPP9 assays or Z-Gly-Pro-AMC for the FAP and PREP assays.
(§4) A (DPPIV and DPP9), buffer B (DPP8), buffer C (FAP), or buffer D (PREP) and a suitable amount of inhibitor (ranging between 10^−4 and 10^−11M) in a total volume of 210 μL. The final enzyme concentrations were 0.1, 0.8, 0.4, 1.2, and 0.6 nM for DPPIV, DPP8, DPP9,
(§5) FAP, and PREP, respectively. […] Those prepared in pH 2.0 solution were preincubated at 25° C. for 4 h prior to dilution. Immediately prior to the commencement of the experiment, the 100 mM stocks were further diluted to 10^−3M in the appropriate assay buffer, from which 1:10 serial dilutions were prepared. All inhibitors were tested in triplicate.

recombinant human PREP = recombinant human PREP (Homo sapiens (Human), UniProt P48147); experiment: In vitro enzyme IC50 assay, PREP; assay type: biochemical; conditions: read-out: PREP Inhibition (IC50)
Source text: as §1, §2, §3, §4, §5

Chain of recombinant human FAP (Q12884 whole entry): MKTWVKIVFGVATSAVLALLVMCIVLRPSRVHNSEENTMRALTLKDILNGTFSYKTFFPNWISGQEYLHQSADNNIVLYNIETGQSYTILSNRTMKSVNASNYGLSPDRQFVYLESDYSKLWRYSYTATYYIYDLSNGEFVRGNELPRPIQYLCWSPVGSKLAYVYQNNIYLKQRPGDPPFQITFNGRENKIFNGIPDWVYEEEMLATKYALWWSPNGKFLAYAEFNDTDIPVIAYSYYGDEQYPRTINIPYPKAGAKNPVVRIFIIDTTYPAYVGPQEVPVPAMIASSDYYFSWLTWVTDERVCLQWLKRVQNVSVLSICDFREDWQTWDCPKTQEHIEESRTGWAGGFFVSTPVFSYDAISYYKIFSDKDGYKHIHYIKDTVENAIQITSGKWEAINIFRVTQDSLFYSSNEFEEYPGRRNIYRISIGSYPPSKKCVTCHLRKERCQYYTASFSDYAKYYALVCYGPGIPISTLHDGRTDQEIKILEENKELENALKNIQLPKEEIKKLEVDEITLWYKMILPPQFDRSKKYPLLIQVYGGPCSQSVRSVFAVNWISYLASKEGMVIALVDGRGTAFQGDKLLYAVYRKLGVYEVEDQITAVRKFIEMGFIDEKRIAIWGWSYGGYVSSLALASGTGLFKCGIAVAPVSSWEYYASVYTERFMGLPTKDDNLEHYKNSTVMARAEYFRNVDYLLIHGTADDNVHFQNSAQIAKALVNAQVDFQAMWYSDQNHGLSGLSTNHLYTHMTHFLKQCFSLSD
Chain of recombinant human PREP (P48147 whole entry): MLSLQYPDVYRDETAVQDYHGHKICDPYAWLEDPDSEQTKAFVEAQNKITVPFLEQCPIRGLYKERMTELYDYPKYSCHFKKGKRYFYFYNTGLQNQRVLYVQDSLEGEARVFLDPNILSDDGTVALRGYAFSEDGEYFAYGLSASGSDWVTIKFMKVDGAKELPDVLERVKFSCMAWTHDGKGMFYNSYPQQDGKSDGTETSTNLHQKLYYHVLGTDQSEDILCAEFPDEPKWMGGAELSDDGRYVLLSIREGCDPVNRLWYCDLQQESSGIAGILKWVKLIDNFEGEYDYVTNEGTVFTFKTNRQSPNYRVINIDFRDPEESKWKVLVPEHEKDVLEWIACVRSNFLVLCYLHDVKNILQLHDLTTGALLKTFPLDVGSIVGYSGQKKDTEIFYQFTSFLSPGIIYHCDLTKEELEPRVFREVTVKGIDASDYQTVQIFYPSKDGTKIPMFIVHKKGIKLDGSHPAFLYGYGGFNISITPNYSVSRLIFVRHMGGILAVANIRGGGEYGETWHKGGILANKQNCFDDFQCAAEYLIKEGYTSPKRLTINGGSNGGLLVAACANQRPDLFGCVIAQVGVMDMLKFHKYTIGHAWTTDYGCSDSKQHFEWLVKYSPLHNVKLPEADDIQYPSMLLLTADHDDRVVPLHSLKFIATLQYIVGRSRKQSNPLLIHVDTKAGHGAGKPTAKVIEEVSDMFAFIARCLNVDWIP

FAP Selectivity, IC50(PREP)/IC50(FAP) (recombinant human FAP; pH2.0) | IC50 (recombinant human FAP; pH2.0) | FAP Selectivity, IC50(PREP)/IC50(FAP) (recombinant human FAP; pH7.5) | IC50 (recombinant human FAP; pH7.5) | IC50 (recombinant human PREP; pH2.0) | IC50 (recombinant human PREP; pH7.5) | SMILES
5.6 | 390 nM | 4.8 | 650 nM | 2200 nM | 3100 nM | C[C@@H](NC(=O)c1ccccc1F)C(=O)N1CCC[C@H]1B(O)O
8.3 | 240 nM | 7.9 | 240 nM | 2000 nM | 1900 nM | C[C@@H](NC(=O)c1ccc(OCF)cc1)C(=O)N1CCC[C@H]1B(O)O
23 | 100 nM | 19 | 130 nM | 2300 nM | 2500 nM | C[C@@H](NC(=O)c1cc(F)nc(F)c1)C(=O)N1CCC[C@H]1B(O)O
15 | 130 nM | 15 | 150 nM | 1900 nM | 2200 nM | C[C@@H](NC(=O)c1ccnc(F)c1F)C(=O)N1CCC[C@H]1B(O)O
2.7 | 450 nM | 4.5 | 330 nM | 1200 nM | 1500 nM | C[C@@H](NC(=O)c1c(F)c(F)c(F)c(F)c1F)C(=O)N1CCC[C@H]1B(O)O
0.37 | 130 nM | 0.41 | 130 nM | 48 nM | 53 nM | C[C@@H](NC(=O)c1cccc(OCF)c1)C(=O)N1CCC[C@H]1B(O)O
1.1 | 690 nM | 3.6 | 390 nM | 790 nM | 1400 nM | C[C@@H](NC(=O)c1ccc(F)cc1F)C(=O)N1CCC[C@H]1B(O)O
19 | 220 nM | 22 | 260 nM | 4100 nM | 5700 nM | C[C@@H](NC(=O)c1ccc(F)cc1)C(=O)N1CCC[C@H]1B(O)O
14 | 140 nM | 16 | 140 nM | 2000 nM | 2300 nM | C[C@@H](NC(=O)c1cc(F)ncc1F)C(=O)N1CCC[C@H]1B(O)O

Reference: patent publication US20240366807A1, “RADIOFLUORINATED AGENTS FOR PET IMAGING SELECTIVELY TARGETING FIBROBLAST ACTIVATION PROTEIN” (Trustees of tufts college, priority 2021, published 2024)
